PMC5282547, “The Proline/Arginine Dipeptide from Hexanucleotide Repeat Expanded C9ORF72 Inhibits the Proteasome” (eNeuro, 2017)
Read-outs that look alike come from different tables or passages of the source. Where no end group is shown, it is not given here.

Tests used:
[1] = tested on: Dendra2-LC3; experiment: Autophagic flux assay, optical pulse labeling of Dendra2-LC3; type: cell-based, rat; conditions: 2 µM peptide, primary spinal neurons, single-cell optical pulse labeling
Method: Primary spinal neurons were dissected from E15 rat pups and cultured at a density of 2.5 × 10^5 cells/ml on a laminin/poly-lysine-coated 96-well plate in motor neuron media. Four days after plating, neurons were transfected with Lipofectamine 2000 (Invitrogen). DNA-Lipofectamine mixtures were incubated with neurons for 20 min followed by rinsing. Neurons were then placed in 100 µL of conditioned media that was collected immediately prior to transfection and half fresh motor neuron media containing 4 µM PR20, resulting in a final concentration of 2 µM PR20.
Optical pulse labeling experiments were performed using an automated microscopy platform previously described by [Arrasate et al. (2004)] and [Barmada et al. (2014)]. A Nikon Eclipse Ti inverted microscope equipped with a PerfectFocus system, 20× objective lens and an Andor iXon3 897 EMCCD camera were used to acquire images. Samples were illuminated with a Sutter Instruments Lamba XL lamp. The microscope and related components were encased in custom-built plexiglass enclosure set to maintain the temperature at 37°C and CO2 at 5%. Semrock GFP and TRITC filters were used for excitation and detection. A Semrock 405-nm long-pass filter was used for photoactivation. Image acquisition and stage movements were accomplished in an automated fashion using µManager and original code written in BeanShell. For all experiments, photoconversion occurred 24 h following transfection. GFP and TRITC images were acquired immediately following activation and subsequently every 2 h for 12 h. Images were acquired in a similar 12-h window starting 48 h after PR20 treatment. Using in-house image analysis scripts, neuronal cell bodies were identified based on their fluorescent intensity and morphology, and a ROI was drawn around the perimeter of each cell at each time. Single-cell TRITC intensity values were recorded and used to fit a first order exponential decay curve for individual neurons and calculate a Dendra2-light chain 3 (LC3) half-life for each cell. […]

[2] = tested on: total ubiquitylated protein; experiment: Ubiquitylation assay (total cellular ubiquitin immunoblot); type: cell-based, rat; conditions: 2 µM, 2, 4, 8, 16 h; significant at 2, 8 and 16 h
Method: The ubiquitylation assay involved acute time point treatments with PR20. 16 h prior to scheduled lysis, two dishes were treated to a final concentration of 2 μM PR20 using the methods described in the PR20 treatment for biochemical assays subsection. This was repeated 8 h prior to lysis, 4 h prior to lysis, and 2 h prior to lysis. Samples were then lysed in RIPA buffer as described in Cell lysis for ubiquitin blots and processed for Western blot analysis.
Ubiquitin analysis requires the use of deubiquitinase (DUB) inhibitors. Lysis without these inhibitors runs the risk of degradation of the substrates to be targeted. As such, N-ethylmaleimide (Sigma), a potent DUB inhibitor, was used in the lysis buffer. […] The remainder of the lysis procedure follows Cell lysis.

[3] = tested on: human astrocytes; conditions: DPR applied repeatedly; ref Kwon et al. (2014); cited from earlier work
Description: We draw a number of conclusions from these experiments.

[4] = tested on: purified affinity-purified human proteasomes; type: biochemical; conditions: for Δ0–5 of Ub-Sic1 signal compared with the no PR20 group: 20 nM Ub-Sic1, n = 3, p < 0.05
Method: Polyubiquitylated Sic1 proteins with PY degron motifs and T7 tag (Ub-Sic1) was prepared as previously described by [Choi et al. (2016)]. Different concentrations of PR20 peptides (0, 50, or 500 nM) and purified affinity-purified human proteasomes (5 nM) were preincubated 20 min in proteasome assay buffer [50 mM Tris-HCl (pH 7.5), 100 mM NaCl, 10% glycerol, 2 mM ATP, 10 mM MgCl2, and 1 mM DTT] on ice, and 20 nM reconstituted Ub-Sic1 was subsequently added. Degradation of Ub-Sic1 and PR20 peptides was monitored by immunoblotting using anti-T7 and anti-HA antibodies, respectively. Band intensities were quantified using ImageJ software (version 1.48k, NIH) from three independent immunoblotting assays (n = 3).

[5] = tested on: motor neurons; experiment: Motor neuron survival with IU1 co-treatment; type: cell-based, rat; conditions: PR20 treatment without IU1, 5 d
Method: Days in vitro (DIV)14 mixed spinal cord cultures were exposed to PR20 or GR20 by addition of synthetic peptide to the media one time. Cultures were fixed 5 d later with freshly prepared 4% paraformaldehyde for 20 min, washed extensively with 0.1 M PBS, pH 7.4, and immunostained with SMI32 to identify motor neurons. […] Motor neurons were counted in three nonoverlapping, randomly selected fields on a coverslip using a 5[times objective, and the values from a single coverslip averaged.
For experiments involving IU1, DIV14 cultures were treated with PR20 or its vehicle, and every other day, IU1 (or vehicle) was added to the culture media to achieve a final concentration of 5 µM. At DIV19, cultures were fixed and motor neuron number determined as described above.

[6] = tested on: KDEL-tagged chaperones BiP and PDI; experiment: Immunoblot for ER stress; type: cell-based, rat; conditions: 2 µM, 48 h, immunoblot normalized to actin
Method: All plates were incubated with PR20 for 48 h.

[7] = tested on: U2OS cells and human astrocytes; conditions: depending on the specific assay; ref Kwon et al., 2014; cited from earlier work
Description: The difficulty of distinguishing between toxic HRE mRNA and DPR proteins has impeded our understanding of the mechanism underlying C9ORF72 HRE pathophysiology. As reported in Science ([Kwon et al., 2014]), the McKnight lab devised a strategy to overcome this problem: they studied U2OS cells and human astrocytes directly exposed to synthetic DPR proteins. […] We built upon this approa ...

[8] = tested on: mixed spinal cord cultures; experiment: Cellular accumulation and disposal of HA-tagged DPR (immunoblot of cell lysates, continuous exposure or 2-h pulse-chase)
Method: Confluent dishes of astrocyte neuron cocultures at 37°C had volumes equalized to 2 ml of cell culture media each. Approximately 300 μl of media from each dish was removed and pooled with other dishes, PR20 stock solution was added, and the mixture was then added back to the corresponding culture dish, so that each dish contained a final concentration of 2 μM. All plates were incubated with PR20 for 48 h.
Lysis buffer was prepared containing 1% (v/v) protease inhibitor cocktail, 1% (v/v) PMSF, and 1% (v/v) leucine in 1% RIPA buffer solution on ice. Culture dishes were washed once with ice-cold PBS to remove any remaining media. A total of 125 μl (35-mm dish), 150 μl (6-well plate), or 250 μL (60-mm dish) of lysis buffer was added to each plate, and cells were scraped into a cold 1.5-ml tube. Samples were sonicated for 30 s at 20% intensity, placed on a rotator at 4°C for 20 min, and then centrifuged for 15 min at 13,200 rpm. Supernatant was then removed from each tube for further analysis.
We investigated the fate of PR20 in mixed spinal cord cultures through immunoblotting and immunocytochemistry. […] To gain further insight into the kinetics of the observed decrease in PR20 levels in cell lysates over time, we pulsed cells with 2 µM PR20 for 2 h, washed, replaced with fresh media (lacking PR20), and made cell lysates at regular intervals thereafter. […] To more easily follow GR20 by immunoblotting, we applied 10 µM GR20 to cultures and performed the same kinetic analysis as described in Figure 1D.

[9] = 2 µM in media, continuous exposure

PRPRPRPRPRPRPRPRPRPRPRPRPRPRPRPRPRPRPRPRYPYDVPDYA [PR20]
extension of Dendra2-LC3 half-life compared with control [1]: ~5.6 h
total ubiquitylated protein levels over time [2]: progressive increase
LD50 that kills human astrocytes [3]: 8.4 µM
degradation of the peptide by purified 26S proteasomes ([4]; 0, 5 and 15 min, anti-HA immunoblot, pH 7.5 assay buffer with ATP): not itself degraded
Δ0–5 of Ub-Sic1 signal compared with the no PR20 group ([4]; 1:10 proteasomes:PR20 (5 nM proteasomes, 50 nM PR20)): statistically significant less
Δ0–15 of Ub-Sic1 signal compared with the no PR20 group ([4]; 1:10 proteasomes:PR20, n = 3, p < 0.05): statistically significantly less
Δ0–5 of Ub-Sic1 signal compared with the no PR20 group ([4]; 1:100 proteasomes:PR20 (5 nM proteasomes, 500 nM PR20)): statistically significant less
Δ0–15 of Ub-Sic1 signal compared with the no PR20 group ([4]; 1:100 proteasomes:PR20, n = 3, p < 0.05): statistically significantly less
loss of motor neurons [5]: approximately 50%
ER stress (BiP and PDI abundance) versus vehicle [6]: no statistically significant differences
toxic concentration range [7]: 10 to 30 µM
time of maximum immunoblot signal in cell lysates [8, 9]: 1.0 to 2.0 h
time point at which immunoblot signal is undetectable [8, 9]: 48 h
time at which peptide is first detectable in cell lysates ([8]; 2 µM in media, continuous exposure, anti-HA immunoblot): approximately 0.5 h
decrement in peptide abundance with versus without bafilomycin A1 in the chase media ([8]; 2-h pulse with 2 µM, chase with Baf A1 400 nM): the same
loss of peptide with MG132 versus vehicle in the chase media ([8]; 2-h pulse with 2 µM, chase with MG132 5 µM): indistinguishable
lysate fractions with detectable Western blot signal at the 2-h time point ([8]; 2-h pulse-chase, 2 µM): soluble and insoluble fractions
time point by which signal diminishes to a barely detectable level ([8]; 2-h pulse-chase, 2 µM): 6 h
half-life of dipeptide in cells ([8]; immunoblot of mixed spinal cord culture lysates): on the orders of hours
